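In this assay, cells in 96-well plates receive the compound at five concentrations for 48 hours. Endpoints are linearly interpolated between the surrounding concentrations. GI50 = concentration required for 50% inhibition of growth.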 The source made the active and inactive calls. Rule as the data show it: active = GI50 up to about 1.1 µM and inactive = higher.
Columns and labels:
Assay in all cases: NCI-60 cell line screen, 48 h
[1] = system: SF-539
[2] = system: TK-10
[3] = system: SK-MEL-28
[4] = system: SF-268
[5] = system: A549
[6] = system: MOLT-4
[7] = system: SK-MEL-2
[8] = system: SF-295
[9] = system: M14
[10] = system: HT-29
[11] = system: DMS-114
[12] = system: 786-0
[13] = system: SNB-75
[14] = system: K562
[15] = system: NCI-H226
[16] = system: M19-MEL
[17] = system: RPMI-8226
[18] = system: RXF 393
[19] = system: HOP-18
[20] = system: SN12C
[21] = system: LXFL 529
[22] = system: HOP-92
[23] = system: Malme-3M
[24] = system: UACC-257
[25] = system: SR
[26] = system: ACHN
[27] = system: UACC-62
[28] = system: A498
[29] = system: NCI-H522
[30] = system: KM12
[31] = system: HOP-62
[32] = system: SW-620
[33] = system: SNB-78
[34] = system: OVCAR-5
[35] = system: UO-31
[36] = system: SNB-19
[37] = system: COLO 205
[38] = system: XF498
[39] = system: NCI-H460
[40] = system: CAKI-1
[41] = system: IGROV-1
[42] = system: U-251
[43] = system: OVCAR-4
[44] = system: OVCAR-8
[45] = system: SK-OV-3
[46] = system: HCT-15
[47] = system: DMS-273
[48] = system: CCRF-CEM
[49] = system: EKVX
[50] = system: HL-60
[51] = system: SK-MEL-5
[52] = system: KM-20L2
[53] = system: HCT-116
[54] = system: HCC 2998
[55] = system: NCI-H23
[56] = system: RXF 631
[57] = system: DLD-1
[58] = system: OVCAR-3

COC(=O)[C@@]12OC[C@]34C([C@@H](O)C1O)[C@@]1(C)CC(=O)C(OC(=O)CC(C)C(F)(F)F)=C(C)C1C[C@H]3OC(=O)[C@H](O)[C@H]42 (stereo not given in full)
GI50 [1]: 1.51 µM (inactive)
GI50 [2]: 5.51 µM (inactive)
GI50 [3]: 1.53 µM (inactive)
GI50 [4]: 6.85 µM (inactive)
GI50 [5]: 17.3 µM (inactive)
GI50 [6]: 0.771 µM (active)
GI50 [7]: 2.95 µM (inactive)
GI50 [8]: 5.16 µM (inactive)
GI50 [9]: 1.99 µM (inactive)
GI50 [10]: 6.92 µM (inactive)
GI50 [11]: 1.44 µM (inactive)
GI50 [12]: 1.92 µM (inactive)
GI50 [13]: 2.11 µM (inactive)
GI50 [14]: 6.05 µM (inactive)
GI50 [15]: 2.06 µM (inactive)
GI50 [16]: 0.434 µM (active)
GI50 [17]: 0.594 µM (active)
GI50 [18]: 4.62 µM (inactive)
GI50 [19]: 1.99 µM (inactive)
GI50 [20]: 2 µM (inactive)
GI50 [21]: 3.81 µM (inactive)
GI50 [22]: 0.887 µM (active)
GI50 [23]: 0.215 µM (active)
GI50 [24]: 2.93 µM (inactive)
GI50 [25]: 2.73 µM (inactive)
GI50 [26]: 8.22 µM (inactive)
GI50 [27]: 1.12 µM (active)
GI50 [28]: 0.156 µM (active)
GI50 [29]: 3.46 µM (inactive)
GI50 [30]: 11.2 µM (inactive)
GI50 [31]: 15 µM (inactive)
GI50 [32]: 1.21 µM (inactive)
GI50 [33]: 29.2 µM (inactive)
GI50 [34]: 19.6 µM (inactive)
GI50 [35]: 10.6 µM (inactive)
GI50 [36]: 0.809 µM (active)
GI50 [37]: 6.81 µM (inactive)
GI50 [38]: 0.13 µM (active)
GI50 [39]: 1.77 µM (inactive)
GI50 [40]: 9.4 µM (inactive)
GI50 [41]: 2.22 µM (inactive)
GI50 [42]: 4.79 µM (inactive)
GI50 [43]: 14.7 µM (inactive)
GI50 [44]: 4.71 µM (inactive)
GI50 [45]: 5.24 µM (inactive)
GI50 [46]: > 62.5 µM
GI50 [47]: 0.379 µM (active)
GI50 [48]: 4.03 µM (inactive)
GI50 [49]: 26.5 µM (inactive)
GI50 [50]: 0.268 µM (active)
GI50 [51]: 1.63 µM (inactive)
GI50 [52]: 3.8 µM (inactive)
GI50 [53]: 2.47 µM (inactive)
GI50 [54]: 2 µM (inactive)
GI50 [55]: 1.38 µM (inactive)

CC1(Cl)CCC2(CC(Br)=CC3OC32C)CC1Br (stereo not given)
GI50 [2]: 46.6 µM (inactive)
GI50 [3]: 23.6 µM (inactive)
GI50 [4]: 19.2 µM (inactive)
GI50 [5]: 28.6 µM (inactive)
GI50 [6]: 17 µM (inactive)
GI50 [8]: 22.6 µM (inactive)
GI50 [9]: 43.2 µM (inactive)
GI50 [10]: 17.9 µM (inactive)
GI50 [11]: 29.4 µM (inactive)
GI50 [15]: 23.2 µM (inactive)
GI50 [16]: 32.3 µM (inactive)
GI50 [18]: 18.3 µM (inactive)
GI50 [22]: 24.9 µM (inactive)
GI50 [24]: 18.4 µM (inactive)
GI50 [25]: 20.7 µM (inactive)
GI50 [27]: 19.2 µM (inactive)
GI50 [28]: 26.6 µM (inactive)
GI50 [29]: 23.9 µM (inactive)
GI50 [30]: 32.5 µM (inactive)
GI50 [31]: 39.4 µM (inactive)
GI50 [33]: 12.4 µM (inactive)
GI50 [34]: 79.4 µM (inactive)
GI50 [35]: 28.6 µM (inactive)
GI50 [36]: 45 µM (inactive)
GI50 [39]: 27.1 µM (inactive)
GI50 [41]: 42.9 µM (inactive)
GI50 [42]: 19 µM (inactive)
GI50 [44]: 30.8 µM (inactive)
GI50 [45]: 51.8 µM (inactive)
GI50 [48]: 18.6 µM (inactive)
GI50 [49]: 52.6 µM (inactive)
GI50 [50]: 15.2 µM (inactive)
GI50 [56]: > 10 µM (inactive)
GI50 [53]: 18.2 µM (inactive)
GI50 [55]: 20.1 µM (inactive)

CCCCCCCCCCCCCCCCOCC(CP(=O)([O-])OCC[n+]1ccccc1)OC (stereo not given)
GI50 [1]: 14.6 µM (inactive)
GI50 [2]: 2.9 µM (inactive)
GI50 [3]: 17 µM (inactive)
GI50 [4]: 7.1 µM (inactive)
GI50 [5]: 10.6 µM (inactive)
GI50 [6]: 4.65 µM (inactive)
GI50 [7]: 16.5 µM (inactive)
GI50 [57]: 2.81 µM (inactive)
GI50 [8]: 4.38 µM (inactive)
GI50 [9]: 5.6 µM (inactive)
GI50 [10]: 4.21 µM (inactive)
GI50 [11]: 11.4 µM (inactive)
GI50 [12]: 14 µM (inactive)
GI50 [13]: 8.45 µM (inactive)
GI50 [14]: 17.1 µM (inactive)
GI50 [15]: 4.02 µM (inactive)
GI50 [16]: 12.4 µM (inactive)
GI50 [17]: 2.96 µM (inactive)
GI50 [20]: 11.4 µM (inactive)
GI50 [21]: 11.4 µM (inactive)
GI50 [22]: 2.28 µM (inactive)
GI50 [23]: 17.8 µM (inactive)
GI50 [24]: 14.5 µM (inactive)
GI50 [25]: 3.5 µM (inactive)
GI50 [27]: 11.3 µM (inactive)
GI50 [28]: 11.3 µM (inactive)
GI50 [29]: 17.3 µM (inactive)
GI50 [30]: 2.67 µM (inactive)
GI50 [31]: 11.6 µM (inactive)
GI50 [32]: 14.9 µM (inactive)
GI50 [33]: 15.9 µM (inactive)
GI50 [35]: 9.4 µM (inactive)
GI50 [36]: 10.1 µM (inactive)
GI50 [37]: 6.46 µM (inactive)
GI50 [38]: 12.1 µM (inactive)
GI50 [40]: 10.4 µM (inactive)
GI50 [41]: 3.84 µM (inactive)
GI50 [58]: 12.6 µM (inactive)
GI50 [43]: 11.4 µM (inactive)
GI50 [44]: 14.7 µM (inactive)
GI50 [45]: 17.7 µM (inactive)
GI50 [47]: 2.04 µM (inactive)
GI50 [48]: 8.2 µM (inactive)
GI50 [49]: 16.5 µM (inactive)
GI50 [50]: 1.76 µM (inactive)
GI50 [51]: 14.1 µM (inactive)
GI50 [56]: 14.6 µM (inactive)
GI50 [53]: 9.66 µM (inactive)
GI50 [54]: 2.45 µM (inactive)
GI50 [55]: 4.05 µM (inactive)

Reference: ChEMBL document CHEMBL1201862, “PubChem BioAssay data set” (2004)
